In patent EP0664129A2, “Epicholesterol for treating dyslipidemia” (PHARMACIA S.p.A., priority 1994, dated 1995):

How the values were obtained:
[1] = tested on: Rats; experiment: Cholesterol / epicholesterol enriched diets in rats: plasma and liver total cholesterol (enzymatic colorimetric method); assay type: in vivo, Male Sprague Dawley rats; conditions: 4 days
Method: (§1) Male Sprague Dawley rats weighing 250 g and male CD mice weighing 22-25 g (Charles River) were housed in rooms maintained at 21±1°C with relative humidity 50-60% and a 12 hours light-dark cycle. After a week of housing, the animals were allocated to the different experimental groups and received one of the following diets: • a) rat or mouse chow diet, containing 0.5% sodium cholate; • b) cholesterol enriched diet, containing 0.5% sodium cholate and 1.5% cholesterol; • c) epicholesterol enriched diet, containing 0.5% sodium cholate and 1.5% epicholesterol; • d) epicholesterol and cholesterol enriched diet containing 0.5% sodium cholate and 1.5% of both sterols. Weight of the animals and food consumption were recorded daily. After overnight fasting, the animals were anesthetized with sodium pentobarbital (50 mg/kg body weight) and exsanguinated from the abdominal aorta. Plasma was obtained by low speed (3000 g for 10 min) centrifugation of whole blood containing Na₂EDTA as anticoagulant. Plasma lipid extracts were prepared according to Bligh E.G., Dyer W.J., Can. J. Bioch. Physiol, 31, 911, 1959. Liver specimens (500 mg) were excised from the lateral liver lobe, washed in ice-cold saline, and immediately placed on dry-ice and stored at -80°C. They were extracted according to the method of Folch J. et al., J. Biol. Chem. , 226, 497, 1957, as modified by Carlson L.A., J. Atheroscler. Res., 3, 334, 1963. Plasma and liver total cholesterol content (i.e. unesterified and esterified cholesterol fractions) were determined by the enzymatic colorimetric method of Allain et al., Clin. Chem., 20, 470, 1974. In this assay epicholesterol is not read.

[2] = tested on: Mice; experiment: Cholesterol / epicholesterol enriched diets in mice: plasma and liver total cholesterol (enzymatic colorimetric method); assay type: in vivo, male CD mice; conditions: 4 days
Method: as §1

[3] = Gas liquid chromatography of unesterified sterols in plasma and liver of mice fed enriched diets; assay type: in vivo; conditions: for Percent Distribution Epicholesterol (unesterified sterol content): 1.5% sterol enriched diet, Mean ± SD, n=3, nd: not detectable
Method: Male Sprague Dawley rats weighing 250 g and male CD mice weighing 22-25 g (Charles River) were housed in rooms maintained at 21±1°C with relative humidity 50-60% and a 12 hours light-dark cycle. After a week of housing, the animals were allocated to the different experimental groups and received one of the following diets: • a) rat or mouse chow diet, containing 0.5% sodium cholate; • b) cholesterol enriched diet, containing 0.5% sodium cholate and 1.5% cholesterol; • c) epicholesterol enriched diet, containing 0.5% sodium cholate and 1.5% epicholesterol; • d) epicholesterol and cholesterol enriched diet containing 0.5% sodium cholate and 1.5% of both sterols. Weight of the animals and food consumption were recorded daily.
After overnight fasting, the animals were anesthetized with sodium pentobarbital (50 mg/kg body weight) and exsanguinated from the abdominal aorta. Plasma was obtained by low speed (3000 g for 10 min) centrifugation of whole blood containing Na₂EDTA as anticoagulant.
Plasma lipid extracts were prepared according to Bligh E.G., Dyer W.J., Can. J. Bioch. Physiol, 31, 911, 1959.
Liver specimens (500 mg) were excised from the lateral liver lobe, washed in ice-cold saline, and immediately placed on dry-ice and stored at -80°C. They were extracted according to the method of Folch J. et al., J. Biol. Chem. , 226, 497, 1957, as modified by Carlson L.A., J. Atheroscler. Res., 3, 334, 1963.
Lipids extract from plasma and liver were separated by TLC on Silica Gel plates from Merck using petroleum ether 40-70°/diethyl ether/acetic acid (80:20:1) as developing system. Cholesterol, epicholesterol, dihydrocholesterol, and 7-keto-cholesterol as representative of the oxysterol class of sterols migrated with very similar Rf and could be recovered as a single area from the TLC plate. These sterols were eluted from the silica using chloroform and were dried by evaporation under N₂. The samples were redissolved in pyridine and derivatizated adding an equal volume of MBSTFA [N-methyl-N(tert-butyldimethylsilyl)Trifluoroacetamide].
After 20 minutes at room temperature the samples were analyzed by GLC according to Smith N.B., Lipids, 17, 464, 1982, on a Carlo Erba Mega 3000 gaschromatographer equipped with a flame ionization detector and a 25 m OV1 column (0.2 mm id., film thickness 0.2-0.25). He was used as carrier at 100 Kps. The splitless injection technique was used and 1-2 µl sample were injected. […] The injection and the detector temperatures were respectively 340°C and 350°C. Retention time of cholesterol, epicholesterol, dihydrocholesterol and 7keto-cholesterol were determined by injecting pure sterols.

[4] = Micellar cholesterol solubilization in vitro; assay type: physicochemical; conditions: for Micellar Cholesterol Content: cholesterol 1 mM
Method: The micellar solubility of cholesterol in vitro was measured by the method of Ikeda I., Tanabe Y. and Sugano M. , J. Nutr. Sci. Vitaminol. 35, 361, 1989. In detail, cholesterol (1 mM) or mixture of cholesterol (1 mM) and epicholesterol (0.5-8 mM) were sonicated for 2 minutes at 37°C in 15 mM NaPO₄ buffer, pH 7.4, containing 0.6 mM egg yolk lecithin, 1 mM oleic acid, 0.5 mM monolein, 6.6 mM Na taurocholate, and 132 mM NaCl. After incubation at 37°C overnight, the solutions were subjected to ultracentrifugation (100,000 g for 60 min at 37°C). Samples of the supernatant were assayed for the cholesterol content.

[5] = diet with 0.5% sodium cholate and 1.5% of the single sterol
[6] = diet with 0.5% sodium cholate and 1.5% of the single sterol, listed as cholesterol
[7] = diet with 0.5% sodium cholate and 1.5% of the single sterol, mean±spread
[8] = diet with 0.5% sodium cholate and 1.5% of the single sterol, listed as epicholesterol
[9] = diet with 1.5% Cholesterol and 1.5% Epicholesterol together, 0.5% sodium cholate
[10] = diet with 1.5% Cholesterol and 1.5% Epicholesterol together, 0.5% sodium cholate, listed as epicholesterol

## CC(C)CCC[C@@H](C)[C@H]1CC[C@H]2[C@@H]3CC=C4C[C@@H](O)CC[C@]4(C)[C@H]3CC[C@]12C [Cholesterol]
[1]; [5]
  CHOLESTEROL CONCENTRATION IN LIVER: **11.28±1.48 (n=7) mg/g fresh tissue
[1]; [6]
  CHOLESTEROL CONCENTRATION IN LIVER: at least a fourfold increase
[1]; [7]
  CHOLESTEROL CONCENTRATION IN PLASMA: **178±45 (n=7) mg/dl
[1]; diet with 0.5% sodium cholate and 1.5% of the single sterol, mean±spread, listed as cholesterol
  CHOLESTEROL CONCENTRATION IN PLASMA: rose significantly
[2]; [5]
  CHOLESTEROL CONCENTRATION IN LIVER: **18.70±2.60 (n=10) mg/g fresh tissue
  CHOLESTEROL CONCENTRATION IN PLASMA: **152±19 (n=10) mg/dl
[2]; [6]
  CHOLESTEROL CONCENTRATION IN LIVER: at least a fourfold increase
  CHOLESTEROL CONCENTRATION IN PLASMA: rose significantly

## CC(C)CCC[C@@H](C)[C@H]1CC[C@H]2[C@@H]3CC=C4C[C@H](O)CC[C@]4(C)[C@H]3CC[C@]12C [Epicholesterol, cholest-5-en-3α-ol]
[1]; [5]
  CHOLESTEROL CONCENTRATION IN LIVER: °° 2.59±0.38 (n=3) mg/g fresh tissue
[1]; [8]
  CHOLESTEROL CONCENTRATION IN LIVER: did not brought about any significant change
[1]; [7]
  CHOLESTEROL CONCENTRATION IN PLASMA: °° 64±18 (n=3) mg/dl
[1]; diet with 0.5% sodium cholate and 1.5% of the single sterol, mean±spread, listed as epicholesterol
  CHOLESTEROL CONCENTRATION IN PLASMA: did not brought about any significant change
[1]; [9]
  CHOLESTEROL CONCENTRATION IN LIVER: ** 5.71±0.95 °° (n=3) □ mg/g fresh tissue
  CHOLESTEROL CONCENTRATION IN PLASMA: **103±9 ° (n=3) □ mg/dl
[1]; [10]
  CHOLESTEROL CONCENTRATION IN LIVER: significant decrease
  CHOLESTEROL CONCENTRATION IN PLASMA: significant decrease
[2]; [5]
  CHOLESTEROL CONCENTRATION IN LIVER: °° 2.58±0.16 (n=10) mg/g fresh tissue
  CHOLESTEROL CONCENTRATION IN PLASMA: * 93±15 °°(n=10) mg/dl
[2]; [8]
  CHOLESTEROL CONCENTRATION IN LIVER: did not brought about any significant change
  CHOLESTEROL CONCENTRATION IN PLASMA: did not brought about any significant change
[2]; [9]
  CHOLESTEROL CONCENTRATION IN LIVER: ** 9.54±1.49 °° (n=10) □□ mg/g fresh tissue
  CHOLESTEROL CONCENTRATION IN PLASMA: **115±26 □(n=10) mg/dl
[2]; [10]
  CHOLESTEROL CONCENTRATION IN LIVER: significant decrease
  CHOLESTEROL CONCENTRATION IN PLASMA: significant decrease
[3]; conclusion from plasma and liver sterol content of mice fed 1.5% epicholesterol diet
  absorption by the intestine: only minimally absorbed
[3]; mice liver
  Percent Distribution Epicholesterol (unesterified sterol content): 1.0±0.4%
[3]; mice liver, listed as epicholesterol
  Percent Distribution Epicholesterol (unesterified sterol content): only trace amount
[3]; mice plasma
  Percent Distribution Epicholesterol (unesterified sterol content): 2.6±1.5%
[3]; mice plasma, listed as epicholesterol
  Percent Distribution Epicholesterol (unesterified sterol content): only trace amount
[4]; Cholesterol-to-Epicholesterol Ratio 0.125
  Micellar Cholesterol Content: 0.18 ± 0.02 mM
[4]; Cholesterol-to-Epicholesterol Ratio 0.25
  Micellar Cholesterol Content: 0.22 ± 0.03 mM
[4]; Cholesterol-to-Epicholesterol Ratio 0.5
  Micellar Cholesterol Content: 0.23 ± 0.06 mM
[4]; Cholesterol-to-Epicholesterol Ratio 1
  Micellar Cholesterol Content: 0.42 ± 0.03 mM
[4]; Cholesterol-to-Epicholesterol Ratio 2, control (cholesterol only) 1.00 ± 0.05
  Micellar Cholesterol Content: 0.71 ± 0.05 mM
[4]; cholesterol and epicholesterol in a 1 to 0.5 molar ratio
  decrease of cholesterol micellar solubility: more than 30%
[4]; epicholesterol and cholesterol mixed together, all the concentrations tested of epicholesterol (0.5-8 mM)
  cholesterol micellar solubility: significantly decreased
